Measurements reported in ChEMBL document CHEMBL3991941, “GLEPP-1 inhibitors in the treatment of autoimmune and/or inflammatory disorders” (2011).
Activity calls are given as the source filed them. No cut-off for these calls is given here.

Key:
Mus musculus [1] = assay: Antiinflammatory activity in C3H mouse model of thioglycollate-induced lymphocyte recruitment assessed as decrease in blood macrophages at 30 mg/kg, po dosed 15 mins before thioglycollate stimulation by Beckman Coulter counting based cell counting method relative to untreated control; type: functional; set-up: scale not given: the % may be the effect or the level left
Mus musculus [2] = assay: Antiinflammatory activity in C3H mouse model of thioglycollate-induced lymphocyte recruitment assessed as decrease in blood lymphocytes at 30 mg/kg, po dosed 15 mins before thioglycollate stimulation by Beckman Coulter counting based cell counting method relative to untreated control; type: functional; set-up: scale not given: the % may be the effect or the level left
Mus musculus [3] = assay: Antiinflammatory activity in C3H mouse model of thioglycollate-induced lymphocyte recruitment assessed as decrease in blood neutrophils at 30 mg/kg, po dosed 15 mins before thioglycollate stimulation by Beckman Coulter counting based cell counting method relative to untreated control; type: functional; set-up: scale not given: the % may be the effect or the level left
Mus musculus [4] = assay: Reduction in body weight loss in Balb/c mouse model of dextran sodium sulfate-induced ulcerative colitis at 10 to 100 mg/kg, po dosed twice daily at days 3,4, 5 and 6 after the induction of the ulcerative colitis and measured 7 days post ulcerative colitis induction; type: functional, organism-based
Mus musculus [5] = assay: Reduction in splenomegaly in Balb/c mouse model of dextran sodium sulfate-induced ulcerative colitis at 100 mg/kg, po dosed twice daily at days 3,4, 5 and 6 after the induction of the ulcerative colitis and measured 7 days post ulcerative colitis induction; type: functional; set-up: scale not given: the % may be the effect or the level left
Mus musculus [6] = assay: Reduction in colon weight in Balb/c mouse model of dextran sodium sulfate-induced ulcerative colitis at 10 mg/kg, po dosed twice daily at days 3,4, 5 and 6 after the induction of the ulcerative colitis and measured 7 days post ulcerative colitis induction; type: functional; set-up: scale not given: the % may be the effect or the level left
Mus musculus [7] = assay: Reduction in colon weight in Balb/c mouse model of dextran sodium sulfate-induced ulcerative colitis at 30 mg/kg, po dosed twice daily at days 3,4, 5 and 6 after the induction of the ulcerative colitis and measured 7 days post ulcerative colitis induction; type: functional; set-up: scale not given: the % may be the effect or the level left
Mus musculus [8] = assay: Reduction in splenomegaly in Balb/c mouse model of dextran sodium sulfate-induced ulcerative colitis at 30 mg/kg, po dosed twice daily at days 3,4, 5 and 6 after the induction of the ulcerative colitis and measured 7 days post ulcerative colitis induction; type: functional; set-up: scale not given: the % may be the effect or the level left
Mus musculus [9] = assay: Reduction in colon weight in Balb/c mouse model of dextran sodium sulfate-induced ulcerative colitis at 100 mg/kg, po dosed twice daily at days 3,4, 5 and 6 after the induction of the ulcerative colitis and measured 7 days post ulcerative colitis induction; type: functional; set-up: scale not given: the % may be the effect or the level left

SMILES	Activity (Mus musculus [1]) [%]	Activity (Mus musculus [2]) [%]	Activity (Mus musculus [3]) [%]	Activity (Mus musculus [4])	Activity (Mus musculus [5]) [%]	Activity (Mus musculus [6]) [%]	Activity (Mus musculus [7]) [%]	Activity (Mus musculus [8]) [%]	Activity (Mus musculus [9]) [%]
CCCCCCN(Cc1ccc(F)c(C(=O)O)c1)c1ccc(C#Cc2ccc(CCCC)cc2)cc1	32	8	28	–	–	–	–	–	–
CCCCc1ccc(C#Cc2ccc(CN(CC3CCCC3)c3ccc(F)c(C(=O)O)c3)cc2)cc1	37	23	36	–	–	–	–	–	–
CCCCCCN(Cc1ccc(C#Cc2ccc(CCCC)cc2)cc1)C(=O)c1ccc(O)c(C(=O)O)c1	62	41	41	–	–	–	–	–	–
CCCCCCc1ccc(C#Cc2ccc(CN(Cc3ccc(C(F)(F)F)cc3)C(=O)C(=O)O)cc2)cc1	27	29	27	–	–	–	–	–	–
CCCCCCN(Cc1ccccc1C#Cc1ccc(CCCC)cc1)C(=O)c1ccc(O)c(C(=O)O)c1	–	–	–	Active	-45	-47	-50	-25	–
CCCCCCN(Cc1ccc(C#Cc2ccc(C(C)(C)C)cc2)cc1)c1ccc(F)c(C(=O)O)c1	42	13	36	–	–	–	–	–	–
CCCCCCc1ccc(C#Cc2ccc(N(Cc3ccc(C(F)(F)F)cc3)C(=O)C(=O)O)cc2)cc1	32	21	15	–	–	–	–	–	–
CCCCCCN(Cc1ccc(C#Cc2ccc(CCC)cc2)cc1)c1ccc(F)c(C(=O)O)c1	26	4	-6	–	–	–	–	–	–
CCCCCCN(Cc1ccc(C#Cc2ccc(CCCC)cc2)cc1)c1ccc(O)c(C(=O)O)c1	50	47	44	–	-65	-22	-28	-31	-35
CCCCCCc1ccc(C#Cc2ccc(CN(C(=O)C(=O)O)C(C)(C)c3cccc(Cl)c3)cc2)cc1	52	39	25	–	–	–	–	–	–
CCCCCCN(Cc1ccc(C#Cc2ccc(CCCC)cc2)cc1)c1ccc(C(=O)O)c(O)c1	65	23	45	–	–	–	–	–	–
O=C(O)C(=O)N(Cc1ccc(C#CCCCCCCCCCF)cc1)Cc1ccc(C(F)(F)F)cc1	36	24	16	–	–	–	–	–	–
